This note sets out measurements from patent US5906920A, “Methods for the detection of ligands for retinoid X receptors” (The Salk Institute for Biological Studies, priority 1995, dated 1999).

This data set has as its system GST-RXR197-462 interaction with in vitro translated TBP. The data set is described as follows: GST pull-down RXR-TBP interaction assay in vitro. The conditions noted are these: 1.0 μM 9-cis retinoic acid in all buffers; quantitated by phosphorimaging. It is filed as binding, human. An excerpt:
GST-RXR197-462 was constructed by PCR amplification of the appropriate sequences from human RXRα. The amplification products were cloned into EcoRI-BamHI digested pGEX2TK. All PCR-derived constructs were verified by sequencing. The plasmid pGEX-TBP was the kind gift of Dr. I. Verma (Salk Institute; see Kerr et al., in Nature 365:412-419 (1993)). Mammalian expression constructs expressing the ligand biding domains of human RXRα, human RARα and human TRβ have been described elsewhere (Forman et al., Cell 81:541-550 (1995)).
GST-fusion proteins were induced, solubilized and bound to glutathione beads following the manufacturer's procedures (LKB-Pharmacia). After binding to glutathione beads, 15 μl of the suspension was incubated with 1 to 2 μl of the appropriate ^35 S-labeled in vitro translated protein for 1 hour in 500 μl of NETN (20 mM Tris-HC1, pH 7.5, 100 mM KC1, 0.7 mM EDTA, 0.5% NP40, 1 mM PMSF). Following incubation, the beads were washed three times with NETN. […]
Thus GST pull-down experiments were carried out as follows. TBP was in vitro transcribed and translated as described above, and incubated with equal amounts of immobilized GST-RXR197-462 or GST-RXR-E453K/E456K) as determined by coomassie stained gels. […] Little or no interaction between TBP and GST alone is detected under these conditions.

With `CC1=C(/C=C/C(C)=C\C=C\C(C)=C\C(=O)O)C(C)(C)CCC1` [9-cis retinoic acid], the “stimulation of the RXR-TBP interaction in vitro by addition of ligand” value is listed as 3-5 fold.
